Laboratory results as given in US8158657B2, “Heterocycles substituted pyridine derivatives and antifungal agent containing thereof” (Eisai R&D Management Co., Ltd., priority 2005, dated 2012).
≈ marks a conversion by molar mass, not a printed value.

How the values were obtained:
[1] = system: A. fumigatus Tsukuba strain; experiment: Anti-Aspergillus activity, MIC measurement; format: cell-based; conditions: RPMI1640, 42-48 hours at 35° C., visual inspection, read-out: Anti-Aspergillus Activity (minimum inhibitory concentration, MIC)
Method in brief: (§1)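 C. albicans CAF2-1 was grown 48 h at 30° C. in SDB and diluted in RPMI1640 to 1.2×10^3 cells/mL. Frozen A. fumigatus Tsukuba was diluted to 4.5×10^3 cells/mL. Compounds, two-fold serially diluted in DMSO from 2.5 mg/mL, were cultured aerobically with fungi for 42-48 h at 35° C.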

[2] = system: C. albicans CAF2-1 strain; experiment: Anti-Candida activity, MIC measurement; format: cell-based; conditions: CAF21STRAIN, C. albicans CAF2-1, RPMI1640, 42-48 hours at 35° C., visual inspection, read-out: Anti-Candida Activity (minimum inhibitory concentration, MIC)
Method in brief: as §1

Row | SMILES | MIC [1] [µg/mL] | MIC [2] [µg/mL]
1 | Nc1ccc(-c2cc(Cc3ccc(CCc4ccco4)cc3)no2)c(N)n1 [Example 140, 3-(3-(4-(2-Furan-2-yl-ethyl)-benzyl)-isoxazol-5-yl)-pyridin-2,6-diamine] | 0.78 (≈ 2.16 µM) | 0.2 (≈ 0.555 µM)
2 | COc1cccc(COc2ccc(Cc3cc(-c4cccnc4N)on3)cc2)n1 [Example 99, 3-(3-(4-(6-Methoxy-pyridin-2-ylmethoxy)-benzyl)-isoxazol-5-yl)-pyridin-2-ylamine] | 0.78 (≈ 2.01 µM) | 3.13 (≈ 8.06 µM)
3 | COCc1ccc(-c2cc(Cc3ccc(Oc4ccccc4)nc3)no2)c(N)n1 [Example 167] | 0.78 (≈ 2.01 µM) | 1.56 (≈ 4.02 µM)
4 | Nc1ncccc1-c1cnn(Cc2ccc(OCc3ccccc3)nc2)c1 [Example 191, 3-(1-(6-Benzyloxy-pyridin-3-ylmethyl)-1H-pyrazol-4-yl)-pyridin-2-ylamine] | 0.39 (≈ 1.09 µM) | 0.2 (≈ 0.56 µM)
5 | Nc1ccc(-c2cc(Cc3cccc(-c4ccccn4)c3)no2)c(N)n1 [Example 146, 3-(3-(3-Pyridin-2-yl-benzyl)-isoxazol-5-yl)-pyridin-2,6-diamine] | > 25 | 6.25 (≈ 18.2 µM)
6 | Nc1ccc(-c2cc(Cc3ccc(NCc4ccccc4)cc3)no2)c(N)n1 [Example 128, 3-(3-(4-Benzylamino-benzyl)-isoxazol-5-yl)-pyridin-2,6-diamine] | 0.39 (≈ 1.05 µM) | 0.2 (≈ 0.538 µM)
7 | CCOC(=O)CNc1ccc(-c2cc(Cc3ccc(OCc4ccccc4)nc3)no2)c(N)n1 [Example 227, (6-Amino-5-(3-(6-benzyloxy-pyridin-3-ylmethyl)-isoxazol-5-yl)-pyridin-2-ylamino)-acetic acid ethyl ester] | 1.56 (≈ 3.39 µM) | 1.56 (≈ 3.39 µM)
8 | Nc1ncccc1-c1cc(Cc2cccc(Oc3ccccc3)c2)no1 [Example 64, 3-(3-(3-Phenoxy-benzyl)-isoxazol-5-yl)-pyridin-2-ylamine] | 0.78 (≈ 2.27 µM) | 0.2 (≈ 0.582 µM)
9 | Nc1ncccc1-c1cc(Cc2ccc(Oc3ccc(F)cc3)s2)no1 [Example 91, 3-(3-(5-(4-Fluoro-phenoxy)-thiophen-2-ylmethyl)-isoxazol-5-yl)-pyridin-2-ylamine] | 0.1 (≈ 0.272 µM) | 0.2 (≈ 0.544 µM)
10 | Nc1ncccc1-c1cc(Cc2ccc(Cc3ccccc3)nc2)no1 [Example 210, 3-(3-(6-Benzyl-pyridin-3-ylmethyl)-isoxazol-5-yl)-pyridin-2-ylamine] | 0.2 (≈ 0.584 µM) | 0.1 (≈ 0.292 µM)
11 | Nc1ncccc1-c1cc(Cc2ccc(OC3CCCC3)cc2)no1 [Example 78, 3-(3-(4-Cyclopentyloxy-benzyl)-isoxazol-5-yl)-pyridin-2-ylamine] | 1.56 (≈ 4.65 µM) | 0.78 (≈ 2.33 µM)
12 | Nc1nc(CO)ccc1-c1cc(Cc2ccc(OCc3ccccc3)cc2)no1 [Example 169] | 0.39 (≈ 1.01 µM) | 0.39 (≈ 1.01 µM)
13 | Nc1ncccc1-c1cc(Cc2ccc(OC3CCCCC3)cc2)no1 [Example 79, 3-(3-(4-Cyclohexyloxy-benzyl)-isoxazol-5-yl)-pyridin-2-ylamine] | 6.25 (≈ 17.9 µM) | 1.56 (≈ 4.46 µM)
14 | Nc1ccc(-c2cc(Cc3ccc(OCc4ccc(F)cc4F)nc3)no2)c(N)n1 [Example 153, 3-(3-(6-(2,4-Difluoro-benzyloxy)-pyridin-3-ylmethyl)-isoxazol-5-yl)-pyridin-2,6-diamine] | 0.39 (≈ 0.953 µM) | 1.56 (≈ 3.81 µM)
15 | COCc1ccc(-c2cc(Cc3ccc(OCc4ccccc4)cc3)no2)c(N)n1 [Example 26, 3-(3-(4-Benzyloxy-benzyl)-isoxazol-5-yl)-6-methoxymethyl-pyridin-2-ylamine] | 0.78 (≈ 1.94 µM) | 0.78 (≈ 1.94 µM)
16 | CCCCOc1ccc(Cc2cc(-c3ccc(N)nc3N)on2)cc1 [Example 126, 3-(3-(4-Butoxy-benzyl)-isoxazol-5-yl)-pyridin-2,6-diamine] | 0.39 (≈ 1.15 µM) | 1.56 (≈ 4.61 µM)

Row | SMILES | MIC [1] [µg/mL] | MIC [2] [µg/mL]
17 | Nc1ncccc1-c1cc(Cc2ccc(Oc3ccccc3F)nc2)no1 [Example 74, 3-(3-(6-(2-Fluoro-phenoxy)-pyridin-3-ylmethyl)-isoxazol-5-yl)-pyridin-2-ylamin] | 0.2 (≈ 0.552 µM) | 0.1 (≈ 0.276 µM)
18 | Nc1ncccc1-c1cc(Cc2ccc(COc3ccc(F)cc3)nc2)no1 [Example 72, 3-(3-(6-(4-Fluoro-phenoxymethyl)-pyridin-3-ylmethyl)-isoxazol-5-yl)pyridin-2-ylamine] | 12.5 (≈ 33.2 µM) | 6.25 (≈ 16.6 µM)
19 | Cc1ccc(Cc2ccc(Cc3cc(-c4cccnc4N)on3)s2)cc1 [Example 92, 3-(3-(5-(4-Methyl-benzyl)-thiophen-2-ylmethyl)-isoxazol-5-yl)-pyridin-2-ylamine] | 0.39 (≈ 1.08 µM) | 0.39 (≈ 1.08 µM)
20 | Nc1ccc(-c2cc(Cc3ccc(COc4ccccc4)cc3)no2)c(N)n1 [Example 148, 3-(3-(4-Phenoxymethyl-benzyl)-isoxazol-5-yl)-pyridin-2,6-diamine] | 0.2 (≈ 0.537 µM) | 0.2 (≈ 0.537 µM)
21 | Cc1ccc(Cc2ccc(Cc3cc(-c4ccc(N)nc4N)on3)s2)cc1 [Example 156, 3-(3-(5-(4-Methyl-benzyl)-thiophen-2-ylmethyl)-isoxazol-5-yl)-pyridin-2,6-diamine] | 0.2 (≈ 0.531 µM) | 0.2 (≈ 0.531 µM)
22 | Nc1ccc(-c2cc(Cc3ccc(OCc4ccccc4)cc3)no2)cn1 [Example 28, 5-(3-(4-Benzyloxy-benzyl)-isoxazol-5-yl)-pyridin-2-ylamine] | 0.39 (≈ 1.09 µM) | > 25
23 | Nc1ccc(-c2cc(Cc3cccc(Oc4ccccc4)c3)no2)c(N)n1 [Example 123, 3-(3-(3-Phenoxy-benzyl)-isoxazol-5-yl)-pyridin-2,6-diamine] | 0.39 (≈ 1.09 µM) | 0.2 (≈ 0.558 µM)
24 | Cc1ccc(Oc2ccc(Cc3cc(-c4ccc(N)nc4N)on3)s2)cc1 [Example 106, 3-(3-(5-p-Tolyloxy-thiophen-2-ylmethyl)-isoxazol-5-yl)-pyridin-2,6-diamine] | 0.2 (≈ 0.528 µM) | 0.78 (≈ 2.06 µM)
25 | Nc1ccc(-c2cc(Cc3ccc(CCC4CCCO4)cc3)no2)c(N)n1 (centres unmarked) [Example 143] | 0.78 (≈ 2.14 µM) | 0.39 (≈ 1.07 µM)
26 | COc1cccc(COc2ccc(Cc3cc(-c4ccc(N)nc4N)on3)cc2)c1 [Example 162, 3-(3-(4-(3-Methoxy-benzyloxy)-benzyl)-isoxazol-5-yl)-pyridin-2,6-diamine] | 0.39 (≈ 0.969 µM) | 0.78 (≈ 1.94 µM)
27 | Nc1ccc(-c2cc(Cc3ccn(Cc4cccc(F)c4)c3)no2)c(N)n1 [Example 160, 3-(3-(1-(3-Fluoro-benzyl)-1H-pyrrol-3-ylmethyl)-isoxazol-5-yl)-pyridin-2,6-diamine] | 0.78 (≈ 2.15 µM) | 0.39 (≈ 1.07 µM)
28 | Nc1ncccc1-c1cc(Cc2cccc(OCc3ccccc3)c2)no1 [Example 61, 3-(3-(3-Benzyloxy-benzyl)-isoxazol-5-yl)-pyridin-2-ylamine] | 0.39 (≈ 1.09 µM) | 0.2 (≈ 0.56 µM)
29 | Cc1ccc(OCc2ccc(Cc3cc(-c4ccc(N)nc4N)on3)cc2)nc1 [Example 103, 3-(3-(4-(5-Methyl-pyridin-2-yloxymethyl)-benzyl)-isoxazol-5-yl)-pyridin-2,6-diamine] | 0.78 (≈ 2.01 µM) | 1.56 (≈ 4.03 µM)
30 | Cc1ccc(OCc2ccc(Cc3cc(-c4cccnc4N)on3)cc2)nc1 [Example 44, 3-(3-(4-(5-Methyl-pyridin-2-yloxymethyl)-benzyl)-isoxazol-5-yl)-pyridin-2-ylamine] | 1.56 (≈ 4.19 µM) | 1.56 (≈ 4.19 µM)
31 | Cc1ccc(Cc2ccc(Cc3cc(-c4ccc(N)nc4)on3)cc2)o1 [Example 178, 5-(3-(4-(5-Methyl-furan-2-ylmethyl)-benzyl)-isoxazol-5-yl)-pyridin-2-ylamine] | 0.2 (≈ 0.579 µM) | 0.39 (≈ 1.13 µM)
